Holding throughout (type): functional
For one experiment, the system named is Candida albicans. Nature of the experiment: Antifungal activity against Candida albicans Berkout KCCM 50235 after 1 day by twofold broth dilution method. As to conditions: Berkout KCCM 50235, 24 h.
The test system of a further experiment is Candida tropicalis. Nature of the experiment: Antifungal activity against Candida tropicalis Berkout KCCM 50662 after 1 day by twofold broth dilution method. As to conditions: Berkout KCCM 50662, 24 h.
For a further experiment, the system named is Pichia kudriavzevii. Nature of the experiment: Antifungal activity against Candida krusei Berkout KCCM 11655 after 1 day by twofold broth dilution method. As to conditions: Berkout KCCM 11655, 24 h. Background: Broth dilution looks for growth in wells or tubes with falling amounts of substance.
The next experiment deals with Cryptococcus neoformans. Nature of the experiment: Antifungal activity against Cryptococcus neoformans KCCM 50564 after 1 day by twofold broth dilution method. As to conditions: KCCM 50564, 24 h.
The subject of another experiment is Aspergillus niger. Nature of the experiment: Antifungal activity against Aspergillus niger KCTC 1231 after 2 days by twofold broth dilution method. Particulars: KCTC 1231, 48 h.
In the next experiment the test system is Aspergillus flavus. Briefly: Antifungal activity against Aspergillus flavus KCCM 11899 after 2 days by twofold broth dilution method. Particulars: KCCM 11899, 48 h.

In brackets after ≈: the same amount, converted by molar mass. Where only a bound is given, the exact number is not on record here.

For orientation: MIC means the lowest concentration that inhibits growth of the organism. A higher MIC goes with weaker potency.

As to `COC(=O)c1cc2c(s1)C(=O)C(Cl)=C([n+]1ccc(Cl)cc1)C2=O.[Cl-]`, the MIC in the experiment on Candida albicans was found to be 12.5 µg/mL; with Candida tropicalis, 25 µg/mL; against Pichia kudriavzevii, 50 µg/mL; in the experiment with Cryptococcus neoformans, 12.5 µg/mL; against Aspergillus niger, 3.2 µg/mL; against Aspergillus flavus it was 12.5 µg/mL.

On to `COC(=O)c1cc2c(s1)C(=O)c1c(C(C)=O)c3ccc(F)cn3c1C2=O`, for which the MIC in the experiment on Candida albicans stood at 50 µg/mL (≈ 135 µM); against Candida tropicalis, 25 µg/mL (≈ 67.3 µM); with Pichia kudriavzevii, 25 µg/mL (≈ 67.3 µM); against Cryptococcus neoformans, 50 µg/mL (≈ 135 µM); with Aspergillus niger, 50 µg/mL (≈ 135 µM); against Aspergillus flavus, 50 µg/mL (≈ 135 µM).

Take `COC(=O)c1cc2c(s1)C(=O)c1c(C(C)=O)c3cc(Cl)ccn3c1C2=O`: the MIC is 50 µg/mL (≈ 129 µM) with Candida albicans; 25 µg/mL (≈ 64.5 µM) against Candida tropicalis; 50 µg/mL (≈ 129 µM) in the experiment with Pichia kudriavzevii; 12.5 µg/mL (≈ 32.2 µM) with Cryptococcus neoformans; 6.3 µg/mL (≈ 16.2 µM) in the experiment with Aspergillus niger; 12.5 µg/mL (≈ 32.2 µM) in the experiment with Aspergillus flavus.

For `CCOC(=O)c1c2c(n3cc(Cl)ccc13)C(=O)c1cc(C(=O)OC)sc1C2=O`, the MIC was 6.3 µg/mL (≈ 15.1 µM) against Candida albicans; 6.3 µg/mL (≈ 15.1 µM) with Candida tropicalis; 6.3 µg/mL (≈ 15.1 µM) against Pichia kudriavzevii; 25 µg/mL (≈ 59.8 µM) in the experiment with Cryptococcus neoformans; 6.3 µg/mL (≈ 15.1 µM) in the experiment on Aspergillus niger; 25 µg/mL (≈ 59.8 µM) in the experiment with Aspergillus flavus.

With `COC(=O)c1cc2c(s1)C(=O)C(Cl)=C([n+]1cccc(Br)c1)C2=O.[Cl-]`, the minimal inhibitory concentration (MIC) is 50 µg/mL with Candida albicans; 50 µg/mL against Candida tropicalis; 25 µg/mL against Pichia kudriavzevii; 50 µg/mL against Cryptococcus neoformans; 12.5 µg/mL against Aspergillus niger; 50 µg/mL in the experiment with Aspergillus flavus.

Take `COC(=O)c1cc2c(s1)C(=O)c1c(C(C)=O)c3ccc(Br)cn3c1C2=O`: the MIC against Candida albicans amounted to 6.3 µg/mL (≈ 14.6 µM); against Candida tropicalis it was 12.5 µg/mL (≈ 28.9 µM); against Pichia kudriavzevii it was 6.3 µg/mL (≈ 14.6 µM); against Cryptococcus neoformans, 1.6 µg/mL (≈ 3.7 µM); with Aspergillus niger it was 6.3 µg/mL (≈ 14.6 µM); in the experiment with Aspergillus flavus it was 12.5 µg/mL (≈ 28.9 µM).

As for `CCc1ccc2c(C(C)=O)c3c(n2c1)C(=O)c1cc(C(=O)OC)sc1C3=O`, the MIC in the experiment on Candida albicans was found to be 12.5 µg/mL (≈ 32.8 µM); against Candida tropicalis it was 50 µg/mL (≈ 131 µM); in the experiment with Pichia kudriavzevii, 50 µg/mL (≈ 131 µM); in the experiment with Cryptococcus neoformans it was 6.3 µg/mL (≈ 16.5 µM); against Aspergillus niger, 12.5 µg/mL (≈ 32.8 µM); with Aspergillus flavus, 6.3 µg/mL (≈ 16.5 µM).

Turning to `CCc1ccc[n+](C2=C(Cl)C(=O)c3sc(C(=O)OC)cc3C2=O)c1.[Cl-]`, the minimal inhibitory concentration (MIC) stood at 50 µg/mL in the experiment with Candida albicans; 25 µg/mL in the experiment on Candida tropicalis; 50 µg/mL in the experiment with Pichia kudriavzevii; 12.5 µg/mL in the experiment on Cryptococcus neoformans; 6.3 µg/mL against Aspergillus niger; 12.5 µg/mL against Aspergillus flavus.

With `CCOC(=O)c1c2c(n3ccccc13)C(=O)c1cc(C(=O)OC)sc1C2=O`, the MIC is 50 µg/mL (≈ 130 µM) in the experiment with Candida albicans; 12.5 µg/mL (≈ 32.6 µM) with Candida tropicalis; 12.5 µg/mL (≈ 32.6 µM) in the experiment on Pichia kudriavzevii; 50 µg/mL (≈ 130 µM) against Cryptococcus neoformans; 12.5 µg/mL (≈ 32.6 µM) in the experiment on Aspergillus niger; 50 µg/mL (≈ 130 µM) with Aspergillus flavus.

`COC(=O)c1cc2c(s1)C(=O)c1c(C(=O)OC)c3ccccn3c1C2=O`: the MIC turned out to be 50 µg/mL (≈ 135 µM) against Candida albicans; 25 µg/mL (≈ 67.7 µM) against Candida tropicalis; 50 µg/mL (≈ 135 µM) against Pichia kudriavzevii; 12.5 µg/mL (≈ 33.8 µM) in the experiment on Cryptococcus neoformans; 25 µg/mL (≈ 67.7 µM) against Aspergillus niger; 12.5 µg/mL (≈ 33.8 µM) against Aspergillus flavus.

On to `COC(=O)c1cc2c(s1)C(=O)C(Cl)=C([n+]1ccc(OC)cc1)C2=O.[Cl-]`, for which the MIC with Candida albicans is 100 µg/mL; in the experiment on Candida tropicalis, 50 µg/mL; in the experiment with Pichia kudriavzevii, 50 µg/mL; in the experiment with Cryptococcus neoformans it was 50 µg/mL; in the experiment on Aspergillus niger, 100 µg/mL; in the experiment with Aspergillus flavus it was 50 µg/mL.

With `COC(=O)c1cc2c(s1)C(=O)C(Cl)=C([n+]1ccc(C#N)cc1)C2=O.[Cl-]`, the minimum inhibitory concentration (MIC) in the experiment with Candida albicans is 25 µg/mL; in the experiment with Candida tropicalis, 50 µg/mL; with Pichia kudriavzevii, 50 µg/mL; with Cryptococcus neoformans, 6.3 µg/mL; with Aspergillus niger, 3.2 µg/mL; against Aspergillus flavus, 6.3 µg/mL.

In the case of `COC(=O)c1cc2c(s1)C(=O)c1c(C(C)=O)c3ccc(Cl)cn3c1C2=O`, the MIC in the experiment on Candida albicans came out at 12.5 µg/mL (≈ 32.2 µM); in the experiment with Candida tropicalis, 3.2 µg/mL (≈ 8.25 µM); in the experiment on Pichia kudriavzevii, 6.3 µg/mL (≈ 16.2 µM); in the experiment on Cryptococcus neoformans it was 3.2 µg/mL (≈ 8.25 µM); with Aspergillus niger, 12.5 µg/mL (≈ 32.2 µM); against Aspergillus flavus, 25 µg/mL (≈ 64.5 µM).

Take `COC(=O)c1cc2c(s1)C(=O)c1c(C(C)=O)c3cc(C#N)ccn3c1C2=O`: the MIC against Candida albicans amounted to 25 µg/mL (≈ 66.1 µM); in the experiment on Candida tropicalis, 25 µg/mL (≈ 66.1 µM); with Pichia kudriavzevii, 25 µg/mL (≈ 66.1 µM); against Cryptococcus neoformans, 6.3 µg/mL (≈ 16.7 µM); in the experiment with Aspergillus niger, 12.5 µg/mL (≈ 33 µM); in the experiment with Aspergillus flavus, 12.5 µg/mL (≈ 33 µM).

Regarding `OC(Cn1cncn1)(Cn1cncn1)c1ccc(F)cc1F` [FLUCONAZOLE], the MIC in the experiment with Candida albicans was 50 µg/mL (≈ 163 µM); against Candida tropicalis it was 3.2 µg/mL (≈ 10.4 µM); in the experiment with Pichia kudriavzevii it was 25 µg/mL (≈ 81.6 µM); in the experiment on Cryptococcus neoformans it was 6.3 µg/mL (≈ 20.6 µM); against Aspergillus niger, 6.3 µg/mL (≈ 20.6 µM); in the experiment with Aspergillus flavus, 25 µg/mL (≈ 81.6 µM).

As for `CCOC(=O)c1c2c(n3ccc(C#N)cc13)C(=O)c1cc(C(=O)OC)sc1C2=O`, the MIC in the experiment on Candida albicans is 12.5 µg/mL (≈ 30.6 µM); against Candida tropicalis, 12.5 µg/mL (≈ 30.6 µM); against Pichia kudriavzevii it was 50 µg/mL (≈ 122 µM); against Cryptococcus neoformans it was 25 µg/mL (≈ 61.2 µM); in the experiment with Aspergillus niger it was 3.2 µg/mL (≈ 7.84 µM); with Aspergillus flavus, 50 µg/mL (≈ 122 µM).

Take `COC(=O)c1cc2c(s1)C(=O)c1c(C(C)=O)c3ccc(C)cn3c1C2=O`: the MIC was 12.5 µg/mL (≈ 34 µM) in the experiment on Candida albicans; 25 µg/mL (≈ 68 µM) against Candida tropicalis; 50 µg/mL (≈ 136 µM) in the experiment with Pichia kudriavzevii; 12.5 µg/mL (≈ 34 µM) with Cryptococcus neoformans; 6.3 µg/mL (≈ 17.1 µM) with Aspergillus niger; 12.5 µg/mL (≈ 34 µM) with Aspergillus flavus.

As for `Nc1nc(=O)[nH]cc1F` [FLUCYTOSINE], the MIC in the experiment with Candida albicans came out at 3.2 µg/mL (≈ 24.8 µM); against Candida tropicalis, 6.3 µg/mL (≈ 48.8 µM); in the experiment with Pichia kudriavzevii, 6.3 µg/mL (≈ 48.8 µM); in the experiment with Cryptococcus neoformans, 6.3 µg/mL (≈ 48.8 µM); against Aspergillus niger it was 6.3 µg/mL (≈ 48.8 µM); in the experiment on Aspergillus flavus it was 25 µg/mL (≈ 194 µM).

With `CCOC(=O)c1c2c(n3cc(C)ccc13)C(=O)c1cc(C(=O)OC)sc1C2=O`, the MIC stood at 25 µg/mL (≈ 62.9 µM) against Candida albicans; 12.5 µg/mL (≈ 31.5 µM) in the experiment on Candida tropicalis; 25 µg/mL (≈ 62.9 µM) in the experiment on Pichia kudriavzevii; 12.5 µg/mL (≈ 31.5 µM) in the experiment with Cryptococcus neoformans; 25 µg/mL (≈ 62.9 µM) with Aspergillus niger; 6.3 µg/mL (≈ 15.9 µM) against Aspergillus flavus.

On to `COC(=O)c1cc2c(s1)C(=O)C(Cl)=C([n+]1cccc(Cl)c1)C2=O.[Cl-]`, for which the MIC with Candida albicans was 3.2 µg/mL; against Candida tropicalis, 1.6 µg/mL; against Pichia kudriavzevii, 3.2 µg/mL; with Cryptococcus neoformans, 50 µg/mL; against Aspergillus niger it was 3.2 µg/mL; in the experiment on Aspergillus flavus, 3.2 µg/mL.

As to `CCOC(=O)c1c2c(n3cc(F)ccc13)C(=O)c1cc(C(=O)OC)sc1C2=O`, the MIC in the experiment with Candida albicans was 6.3 µg/mL (≈ 15.7 µM); with Candida tropicalis, 50 µg/mL (≈ 125 µM); with Pichia kudriavzevii, 12.5 µg/mL (≈ 31.1 µM); in the experiment on Cryptococcus neoformans it was 12.5 µg/mL (≈ 31.1 µM); in the experiment with Aspergillus niger, 50 µg/mL (≈ 125 µM); against Aspergillus flavus, 12.5 µg/mL (≈ 31.1 µM).

`CCOC(=O)c1c2c(n3cc(Br)ccc13)C(=O)c1cc(C(=O)OC)sc1C2=O`: the MIC in the experiment with Candida albicans was found to be 3.2 µg/mL (≈ 6.92 µM); in the experiment with Candida tropicalis it was 1.6 µg/mL (≈ 3.46 µM); in the experiment with Pichia kudriavzevii, 12.5 µg/mL (≈ 27 µM); in the experiment with Cryptococcus neoformans it was 1.6 µg/mL (≈ 3.46 µM); against Aspergillus niger it was 3.2 µg/mL (≈ 6.92 µM); against Aspergillus flavus, 1.6 µg/mL (≈ 3.46 µM).

For the compound `COC(=O)c1cc2c(OC)ccc(OC)c2s1`, the MIC in the experiment with Candida albicans was 100 µg/mL (≈ 396 µM); against Candida tropicalis, more than 100 µg/mL; with Pichia kudriavzevii it was 50 µg/mL (≈ 198 µM); in the experiment with Cryptococcus neoformans it was more than 100 µg/mL; against Aspergillus niger it was 100 µg/mL (≈ 396 µM); in the experiment on Aspergillus flavus, 100 µg/mL (≈ 396 µM).

As to `CCOC(=O)c1c2c(n3ccc(OC)cc13)C(=O)c1cc(C(=O)OC)sc1C2=O`, the MIC in the experiment on Candida albicans came out at 50 µg/mL (≈ 121 µM); against Candida tropicalis it was 50 µg/mL (≈ 121 µM); against Pichia kudriavzevii it was 100 µg/mL (≈ 242 µM); against Cryptococcus neoformans it was 50 µg/mL (≈ 121 µM); in the experiment with Aspergillus niger, 100 µg/mL (≈ 242 µM); in the experiment with Aspergillus flavus, 50 µg/mL (≈ 121 µM).

Values taken from ChEMBL document CHEMBL2069251, “Synthesis and antifungal activity of 1-thia-4b-aza-cyclopenta[b]fluorene-4,10-diones” (2012).
